The values that follow come from US9376499B2, “PAR-1 activation by metalloproteinase-1 (MMP-1)” (Tufts Medical Center, Inc., priority 2009, dated 2016).

The subject of assay [1] is platelets. Nature of the assay: Collagen-dependent aggregation of gel-filtered human platelets (light transmittance). The assay is classed as cell-based. Conditions: for inhibition (loss) of collagen-induced platelet aggregation: 5 μg/ml collagen, 1,10-PA 100 μM, MMP-200 200 nM, FN-439 3 μM, RWJ-56110 1 μM, PAR1 Ab 75 μg/ml, pepducins 3 μM, PPACK 200 μM, hirudin 1 U/ml. The procedure: Platelet pellets and their supernatants were prepared as follows. […] following established informed consent procedures. […] Alternatively, whole blood was obtained from Hartley Sprague guinea pigs (drawn from the vena cava) into 3% citrate plus 10 U/ml heparin. Washed platelets from the guinea pigs were prepared in PIPES buffer. Platelet aggregation was measured with a Chronolog 560VS/490-2D aggregometer using modified PIPES buffer as a blank. Samples were incubated for 5 min in the presence of inhibitors and 1.8 mM CaCl2 prior to addition of agonist. All reactions were in final volumes of 250 μl at 37° C. while stirring at 900 rpm.
The effect of pharmacologic blockage of metalloproteases or PAR1 on collagen-dependent platelet aggregation was then tested (see FIG. 5). Gel-filtered platelets from healthy individuals (supplemented with 0.3 mg/ml fibrinogen) were challenged with 5 μg/ml collagen in the presence or absence (0.2% DMSO vehicle) of the indicated inhibitors and allowed to stir at 900 rpm in an aggregometer cuvette (250 μL) at 37° C.
In FIG. 5A, platelet aggregation was monitored by light transmittance.

Assay [2] has as its system platelets. Nature of the assay: Platelet thrombus formation on collagen surface under arterial flow, heparin-anticoagulated whole blood. The format is cell-based, human. The following applies: heparin 10 U/mL; shear rate 1,000 s-1; FN-439 3 μM, RWJ-56110 1 μM, pepducins 3 μM, aspirin 1 mM. Here is the method: Following incubation with inhibitors, the blood was perfused over a glass slide coated with fibrillar collagen type I.
A flow chamber (Glycotech) with Type-I fibrillar collagen-coated glass slides was mounted on the stage of an IMT-2 inverted microscope (Olympus) equipped with Retiga 1300 digital camera (QImaging) and 40× objective. One of the flow chamber inlets was connected to a syringe pump (Harvard Apparatus) calibrated to create a shear rate of 1,000^s-1. The whole blood pretreated with the various pharmacologic inhibitors was then perfused over the collagen-coated glass slide. After 2-15 min of perfusion, blood was removed from the flow chamber by gentle displacement with PIPES buffer and images of 8-10 fields were acquired using OpenLab software (Improvision). Acquired images were further analyzed using NIH Image 1.63 software. Images were first sharpened and the edges of separate platelets and platelet aggregates were determined. Following the adjustment of threshold, images were converted into the binary format, and the particle analysis function was activated to highlight the regions covered by platelets with the sensitivity set to one single adherent thrombocyte. For the conversion of pixels into square micrometers, a calibration curve was built using 2.5, 6, 20, 25, and 45 μm polystyrene beads (Polyscience) using acquisition conditions identical to the experimental. The mean area of formed thrombus was determined at 7 min. Area measurements in FIG. 6B represent the mean±s.e. of three separate experiments from five different blood donors.

The target of assay [3] is T1, PAR1 (Homo sapiens, UniProt P25116).
T1 construct: able to cleave PAR1 on the surface of human platelets; endogenous in cells; host or cells: gel-filtered or washed human platelets
T1 sequence (P25116 22-425): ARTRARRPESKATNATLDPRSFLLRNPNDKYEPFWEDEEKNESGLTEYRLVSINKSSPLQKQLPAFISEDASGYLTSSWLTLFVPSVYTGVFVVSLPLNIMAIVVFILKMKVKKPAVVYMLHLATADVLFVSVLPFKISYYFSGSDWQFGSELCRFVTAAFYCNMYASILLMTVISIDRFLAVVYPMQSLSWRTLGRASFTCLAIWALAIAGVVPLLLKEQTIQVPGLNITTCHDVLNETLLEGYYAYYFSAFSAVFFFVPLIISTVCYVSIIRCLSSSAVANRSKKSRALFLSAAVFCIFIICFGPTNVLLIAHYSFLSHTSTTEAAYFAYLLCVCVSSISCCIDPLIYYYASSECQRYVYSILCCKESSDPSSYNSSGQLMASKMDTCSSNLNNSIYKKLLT
Nature of the assay: Platelet shape change (decrease in light transmittance). The assay is classed as cell-based. The following applies: washed human platelets pretreated with 2 mM EGTA. The procedure:
In FIG. 3C, the ability of the […] peptide (PR-TRAP) to induce a change in platelet shape was determined. Washed human platelets were pretreated with 2 mM EGTA and then treated with the indicated agonists in the presence or absence of 1 μM RWJ-56110 while stirring at 1100 rpm. The decrease in light transmittance is an indication of the platelet shape change reaction.
In FIG. 4B, the ability of MMP-1 to induce platelet shape change was determined. Washed human platelets were pretreated with 2 mM EGTA and then challenged with MMP-1 in the presence or absence of 1 μM RWJ-56110 while stirring at 1100 rpm. Shape change was measured as described above.

Assay [4] concerns the target T1, PAR1. Nature of the assay: PAR1-dependent RhoA activation (Rho-GTP) in platelets by tethered-ligand peptides. The following applies: 30 μM peptide, 5 min, 37° C. The format is cell-based. The procedure: Gel-filtered human platelets, supplemented with 0.3 mg/mL fibrinogen, were treated with 0.2% DMSO vehicle, or 30 μM SFLLRN (TRAP), PR-TRAP or reversed peptide (RP-TRAP), for 5 min at 37° C. in presence or absence of 1 μM RWJ-56110 as indicated. Platelets were lysed and Rho-GTP and total Rho was determined by Western analysis as described in the Experimental Procedures. Western bands were quantified by densitometry and results expressed relative to fold-increase from basal.

In assay [5] the target is T1, PAR1. Kind of assay: p38 MAPK activation in platelets by tethered-ligand peptides. Conditions: 5 min, 37° C. The format is cell-based. Here is the method:
In FIG. 3B, the effect of the […] peptide (PR-TRAP) on p38 MAPK in platelets was measured. Platelets were stimulated with different concentrations of PR-TRAP, RP-TRAP or TRAP as indicated for 5 min at 37° C. Platelets were lysed with Laemmli sample buffer and proteins assessed by Western blot of p38 MAPK activity with phospho-specific p38 MAPK antibody or total p38MAPK antibody.

The test system of assay [6] is PAR1. Nature of the assay: Release of PAR1 N-terminal cleavage peptide from gel-filtered platelets (dot blot, IIaR-A antibody). The format is cell-based, human. Conditions: 5 μg/ml collagen, 10 min, 37° C.; Ab 20 μg/ml; ARC 0.5 μM; ASA 1 mM. From the text:
To further understand how collagen is able to activate significant amounts of endogenous MMP-1 collagenase activity on the surface of platelets, experiments were devised to determine if PAR-1 is cleaved in either an autocrine or paracrine manner following exposure to collagen. Using a monoclonal antibody raised against the amino-terminal thrombin-cleavage peptide region of PAR1, residues 32-46 (Loew et al., 2000), the relative abilities of thrombin, MMP-1 and collagen to cause cleavage of platelet PAR1 was assessed. Gel filtered platelets were treated for 10 min with thrombin (3 nM), MMP-1 (3 nM), collagen (5 μg/ml), in the presence or absence (PBS buffer) of 0.00013 U hirudin or 5 μM FN-439 at 37° C. Supernatants were concentrated 20-fold and applied to nitrocellulose membranes, then probed with the IIaR-A monoclonal antibody. The PAR1 N-terminal thrombin deavage peptide (A26-R41) and PAR1 flexible linker peptide (N-acetyl-T67-L84 -C) (Kuliopulos et al., 1999) served as positive and negative controls (100 ng), respectively.
These platelets were then stimulated with collagen (5 μg/ml) for 10 min. at 37° C. Supernatants were concentrated 20-fold and applied to nitrocellulose membranes, then probed with the IIaR-A monoclonal antibody. […] FN-439, or an MMP1-blocking antibody (20 μg/ml) but not by thrombin inhibitor, hirudin (see FIG. 1E, FIG. 1G).

The test system of the next assay is p38 MAPK. Kind of assay: Collagen-induced phospho-p38 MAPK in platelets (western blot). The format is cell-based, human. The following applies: 5 or 20 μg/ml collagen or 10 nM MMP-1; ARC 0.5 μM, aspirin 1 mM. Here is the method:
The effect of pharmacologic blockage of metalloproteases or PAR1 on collagen-dependent platelet aggregation was then tested (see FIG. 5). […] Platelets were pre-incubated for 5 min with the thrombin inhibitors PPACK (200 μM) or hirudin (1 U/ml), the Zn-chelator 1,10-phenanthroline (1,10-PA; 100 μM), the broad spectrum metalloprotease inhibitor MMP-200 (200 nM), the MMP-1 inhibitor FN-439 (3 μM), the PAR1 ligand binding site inhibitor RWJ-56110 (1 μM), the PAR1 blocking antibody (75 μg/ml), the PAR1 pepducin lipopeptides P1pal-12 (3 μM) or P1pal-7 (3 μM), the PAR4 pepducin lipopeptide P4pal-10 (3 μM), MMP-8 inhibitor (25 nM) or MMP9/13 inhibitor (10 nM).
In FIG. 5B, platelets were treated as in FIG. 5A and then lysed with Laemmli sample buffer 5 min after addition of collagen, p38 MAPK activity was then assessed by western blot with a p38 MAPK phospho-Ab and total p38 loading was determined using a p38 MAPK antibody.
Background: In western blotting, separated proteins are transferred to a membrane and probed.

A further assay deals with Rho-GTP. Nature of the assay: Collagen-induced Rho-GTP activity in platelets (western blot). The assay is classed as cell-based, human. The following applies: 5 or 20 μg/ml collagen or 10 nM MMP-1; ARC 0.5 μM, aspirin 1 mM. Here is the method:
In FIG. 5C, platelets were treated as in FIG. 5B and then Rho GTP activity was assessed by western blot.
Representative blots are shown at the bottom of FIGS. 5B-D. Data are the mean±s.d. of three experiments. P*<0.01, #<0.05.

Assay [7] can be described thus: Carotid artery FeCl3 injury arterial thrombosis model. The assay is classed as in vivo, guinea pig. The following applies: bivalirudin 0.18 mg/kg i.v.; from 13 min without. From the text:
To assess the efficacy on arterial thrombosis by blockade of thrombin, MMP-1, or PAR1, a standard carotid artery FeCl3 injury model was used in guinea pigs. FeCl3 causes denudation of the artery and exposure of type I collagen and other subendothelial matrix proteins. The effects of blocking thrombin with bivalirudin, MMP-1 with FN-439, and PAR1 with either the small molecule antagonist RWJ-56110 or the P1pal-7 pepducin on arterial thrombosis were then compared using a dopier probe.
For these arterial thrombosis experiments, 10 min after i.v. administration of vehicle (−), bivalirudin, RWJ-56110, P1 pal-7 or FN-439 (n=4-5) through the jugular vein at the indicated concentrations, the right carotid arteries were injured for 20 min using a 24 mm^2 piece of Bio-Rad Trans-Blot paper soaked in 20% FeCl3. Arterial flow 5 mm distal to the site of injury was measured with a 0.5 V Doppler probe (Transonic Systems). An arterial occlusion was defined as a flow rate of <0.01 V for ≧5 min. Doppler measurements were terminated at the 30 min time point following injury (* designates p<0.05).

No end group written: not given here.

As for “P1pal-12: PAR1 i3 loop pepducin lipopeptide, RCLSSSAVANRS (SEQ ID NO. 3), palmitate (also: palmitate, site not given here)”, the “inhibition (loss) of collagen-induced platelet aggregation” value (from here on “inhibition (loss)”) in the assay with platelets [1] was “identical levels of inhibition as blocking MMP-1”. Further, in the assay with platelets [2], the “attenuation of growth rate and size of platelet aggregate strings” value is given as approximately 75%.

Consider “R-TRAP: peptide corresponding to cleavage at LDP40↓R41SFLLRN (RSFLLRN)”, for which the “agonist activity, platelet shape change” value with PAR1 [3] was “partial agonist activity”. In the case of “RP-TRAP: control peptide in which the first two amino acid residues were reversed (RPSFLLRN; PAR1 N-terminal extracellular mutant)”, in the assay with PAR1 [4], the “agonist activity, PAR1-dependent Rho signaling in platelets” value was “did not stimulate”. The “agonist activity, p38 MAPK signaling in platelets” value in the assay with PAR1 [5] is “did not stimulate”. Moreover, the “agonist activity, platelet shape change” value in the assay with PAR1 [3] is “did not stimulate”. As for `c1cnc2c(c1)ccc1cccnc12` [1,10-phenanthroline], in the assay on platelets [1], the “inhibition (loss)” value was 80%. For the molecule “DPR-TRAP: peptide corresponding to cleavage at L38↓D39PRSFLLRN (DPRSFLLRN; PAR1 N-terminal extracellular mutant)”, in the assay with PAR1 [3], the “agonist activity, platelet shape change” value was “nearly no activity”. In the case of `NC(N)=NCCC[C@H](NC(=O)[C@@H]1CCCN1C(=O)[C@H](N)Cc1ccccc1)C(=O)CCl` [PPACK], the “inhibition (loss)” value in the assay with platelets [1] was “no effect”. “P4pal-10: PAR4 pepducin lipopeptide (SGRRYGHALR; also: lipopeptide ('pal'), lipid and site not given here)”: the “inhibition (loss)” value with platelets [1] is on record as approximately 10%. Regarding “PR-TRAP: synthetic peptide PRSFLLRN (SEQ ID NO:1), MMP1-generated tethered ligand of PAR1 (listed as Homo sapiens)”, the “agonist activity, PAR1-dependent Rho signaling in platelets” value in the assay with PAR1 [4] is listed as “full agonist”. The “agonist activity, p38 MAPK signaling in platelets” value with PAR1 [5] is reported as “full agonist”. Moreover, the “agonist activity, platelet shape change” value with PAR1 [3] is reported as “activated changes in platelet shape”.

With `CSCCNc1nc(SCCC(F)(F)F)nc2c1ncn2[C@@H]1O[C@H](COP(=O)(O)OP(=O)(O)C(Cl)(Cl)P(=O)(O)O)[C@@H](O)[C@H]1O` [AR-C69931MX], the “block of collagen-induced release of PAR1 N-terminal peptide” value with PAR1 [6] is “no effect”. Moreover, the “suppression of aggregation to collagen” value with platelets [1] (ARC 0.5 μM, aspirin 1 mM) is “could still suppress”. The “effect on activation of phospho-p38 MAPK” value in the assay on p38 MAPK was “no effect”. The “effect on activation of Rho-GTP” value with Rho-GTP is recorded as “no effect”. Consider “Bivalirudin: thrombin inhibitor (Angiomax)”, for which the “mean arterial occlusion time” value in assay [7] turned out to be 20 min.
